{"source": "paper PMC11990670", "about": "“Exploring the Volatility, Phase Transitions, and Solubility Properties of Five Halogenated Benzaldehydes” (Molecules, 2025)", "key": {"[1]": {"assay": "Vapor pressures of crystalline and liquid phases, static method with capacitance diaphragm gauge", "assay_type": "physicochemical", "excerpt": "A previously described and tested static apparatus was used to measure the vapor pressures of the condensed phases (both crystalline and liquid) of the five compounds studied. This installation employs MKS capacitance diaphragm absolute gauges, operating at self-regulated constant temperatures. Our lab is equipped with three pressure gauges. Gauge I, a Baratron 631A01TBEH (MKS instruments, Andover, MA, USA) (Tgauge = 423 K), measures pressures in the range of 0.5 to 1.3 × 10^2 Pa and operates within a temperature range of 253 to 413 K. Gauge II, the instrument used in this study, is a Baratron 631A11TBFP (MKS instruments, Andover, MA, USA) (Tgauge = 473 K), capable of measuring pressures from 0.5 to 1.3 × 10^3 Pa within a temperature range of 253 to 433 K and gauge III, a Baratron 631D02T8FP (MKS instruments, Andover, MA, USA) (Tgauge = 473 K), designed to measure pressures between 0.5 Pa and 2.6 × 10^2 Pa, also within a temperature range of 253 to 433 K. The temperatures of the samples were measured using a Pt100 platinum resistance thermometer, calibrated by comparison with a standard platinum resistance thermometer (SPRT: Tinsley Precision Instruments Ltd, London, England). To prevent vapor condensation, the tubing connecting the cell containing the condensed sample to the pressure gauge is maintained at a temperature higher than that of the sample but lower than that of the gauge. The uncertainty in temperature measurements is estimated to be u(T/K) = ±0.01, and the expanded uncertainties (0.95 confidence level, k = 2) in pressure measurements are given by the expression U(p/Pa) = 0.1 + 0.0050 (p/Pa) for the gauge used. Samples were thoroughly degassed before starting the vapor pressure measurements, ensuring consistent readings at specific temperatures and eliminating any residual volatile substances, including water."}, "[2]": {"assay": "pH of the saturated aqueous solutions", "assay_type": "physicochemical", "conditions": "saturated aqueous solution of the solubility experiment", "experimental": "The concentration was measured by absorbances at 260 nm for 4-chlorobenzaldehyde, 263 nm for 4-bromobenzaldehyde and 2,4-dichlorobenzaldehyde, 297 nm for 2,6-dichlorobenzaldehyde, and 306 nm for 2,3-dichlorobenzaldehyde, using a Cary-60 UV–vis (Agilent) spectrophotometer. X-ray diffraction (XRD) and differential scanning calorimetry of residual solids were used to identify the eventual phase transformations. The purified samples of each compound studied were used for all experimental determinations, including the solubility measurements. After reaching the equilibrium, the residual solid was dried and analyzed using both DSC and XRD. The melting properties obtained from DSC were compared with those of the original purified sample, following the same procedure for the XRD analysis. […] As an example, the supporting information includes two thermograms and two XRD patterns for 2,4-dichlorobenzaldehyde (Figures S1 and S2). […] Equation (4) was derived from Equation (5), which is widely applicable to the solubility of solids.(4) ΔhydrGm°/kJ·mol^−1=9.17−5.71·log10(Scr/mol·m^−3)−ΔcrgGm°/kJ·mol^−1 (5) S=p^°/RTexpΔcrgGm°+ΔhydrGm°/−RT\nAn excess amount of each compound was added to a known volume of water in triplicate. […] After stirring, the solid phase was allowed to settle for 2 h. The pH of the saturated solutions was measured using a Mettler Toledo (Greifensee, Switzerland) FiveEasy F20 pH Meter calibrated with standard aqueous solutions (pH 7.00 and 4.01 or 10.1). Those solutions were then filtered through a 0.22 μm syringe hydrophilic filter (13 mm, PTFE, Labfil, Zhejiang, China) and diluted to the required concentration. The concentration of the compounds, expressed in molarity, was measured by absorbances using a Cary-60 UV–vis spectrophotometer (Agilent Technologies, Santa Clara, CA, USA) at 298.15 K (single cell Peltier accessory, ±0.15 K). The results reported in Table 6 are averaged from at least three replicates. Calibration was performed using solutions of known concentrations of each substance in water. These solutions were prepared by adding a precise mass of the substance and a specific volume of the solvent to a flask, then mixing until the substance was fully dissolved. The absorbance of these solutions was measured, and calibration curves were created."}}, "note": "Marks after values point to notes of the source that are not given here.", "data": [{"smiles": "O=Cc1c(Cl)cccc1Cl", "note": "[2,6-Dichlorobenzaldehyde]", "values": [{"measurement": "vapor pressure p", "setting": "[1]; crystalline phase, T = 292.72 K", "result": 0.50, "unit": "Pa"}, {"measurement": "vapor pressure p", "setting": "[1]; crystalline phase, T = 294.67 K", "result": 0.63, "unit": "Pa"}, {"measurement": "vapor pressure p", "setting": "[1]; crystalline phase, T = 296.72 K", "result": 0.81, "unit": "Pa"}, {"measurement": "vapor pressure p", "setting": "[1]; crystalline phase, T = 298.56 K", "result": 1.00, "unit": "Pa"}, {"measurement": "vapor pressure p", "setting": "[1]; crystalline phase, T = 300.60 K", "result": 1.28, "unit": "Pa"}, {"measurement": "vapor pressure p", "setting": "[1]; crystalline phase, T = 302.53 K", "result": 1.58, "unit": "Pa"}, {"measurement": "vapor pressure p", "setting": "[1]; crystalline phase, T = 304.58 K", "result": 1.97, "unit": "Pa"}, {"measurement": "vapor pressure p", "setting": "[1]; crystalline phase, T = 306.53 K", "result": 2.49, "unit": "Pa"}, {"measurement": "vapor pressure p", "setting": "[1]; crystalline phase, T = 308.53 K", "result": 3.07, "unit": "Pa"}, {"measurement": "vapor pressure p", "setting": "[1]; crystalline phase, T = 310.48 K", "result": 3.74, "unit": "Pa"}, {"measurement": "vapor pressure p", "setting": "[1]; crystalline phase, T = 312.49 K", "result": 4.61, "unit": "Pa"}, {"measurement": "vapor pressure p", "setting": "[1]; crystalline phase, T = 314.41 K", "result": 5.68, "unit": "Pa"}, {"measurement": "vapor pressure p", "setting": "[1]; crystalline phase, T = 316.45 K", "result": 7.02, "unit": "Pa"}, {"measurement": "vapor pressure p", "setting": "[1]; crystalline phase, T = 318.40 K", "result": 8.62, "unit": "Pa"}, {"measurement": "vapor pressure p", "setting": "[1]; crystalline phase, T = 320.45 K", "result": 10.52, "unit": "Pa"}, {"measurement": "vapor pressure p", "setting": "[1]; crystalline phase, T = 322.40 K", "result": 12.77, "unit": "Pa"}, {"measurement": "vapor pressure p", "setting": "[1]; crystalline phase, T = 324.42 K", "result": 15.66, "unit": "Pa"}, {"measurement": "vapor pressure p", "setting": "[1]; crystalline phase, T = 326.34 K", "result": 18.87, "unit": "Pa"}, {"measurement": "vapor pressure p", "setting": "[1]; crystalline phase, T = 328.34 K", "result": 22.67, "unit": "Pa"}, {"measurement": "vapor pressure p", "setting": "[1]; crystalline phase, T = 330.30 K", "result": 27.33, "unit": "Pa"}, {"measurement": "vapor pressure p", "setting": "[1]; crystalline phase, T = 332.29 K", "result": 32.89, "unit": "Pa"}, {"measurement": "vapor pressure p", "setting": "[1]; crystalline phase, T = 334.27 K", "result": 39.51, "unit": "Pa"}, {"measurement": "vapor pressure p", "setting": "[1]; crystalline phase, T = 336.23 K", "result": 46.91, "unit": "Pa"}, {"measurement": "vapor pressure p", "setting": "[1]; crystalline phase, T = 338.20 K", "result": 56.28, "unit": "Pa"}, {"measurement": "vapor pressure p", "setting": "[1]; liquid phase, T = 344.17 K", "result": 91.46, "unit": "Pa"}, {"measurement": "vapor pressure p", "setting": "[1]; liquid phase, T = 346.13 K", "result": 103.7, "unit": "Pa"}, {"measurement": "vapor pressure p", "setting": "[1]; liquid phase, T = 348.09 K", "result": 118.4, "unit": "Pa"}, {"measurement": "vapor pressure p", "setting": "[1]; liquid phase, T = 350.07 K", "result": 133.6, "unit": "Pa"}, {"measurement": "vapor pressure p", "setting": "[1]; liquid phase, T = 352.10 K", "result": 151.3, "unit": "Pa"}, {"measurement": "vapor pressure p", "setting": "[1]; liquid phase, T = 354.09 K", "result": 168.0, "unit": "Pa"}, {"measurement": "vapor pressure p", "setting": "[1]; liquid phase, T = 356.04 K", "result": 190.2, "unit": "Pa"}, {"measurement": "vapor pressure p", "setting": "[1]; liquid phase, T = 358.03 K", "result": 212.4, "unit": "Pa"}, {"measurement": "vapor pressure p", "setting": "[1]; liquid phase, T = 359.98 K", "result": 239.9, "unit": "Pa"}, {"measurement": "vapor pressure p", "setting": "[1]; liquid phase, T = 361.98 K", "result": 266.2, "unit": "Pa"}, {"measurement": "vapor pressure p", "setting": "[1]; liquid phase, T = 363.92 K", "result": 297.7, "unit": "Pa"}, {"measurement": "vapor pressure p", "setting": "[1]; liquid phase, T = 365.92 K", "result": 333.0, "unit": "Pa"}, {"measurement": "vapor pressure p", "setting": "[1]; liquid phase, T = 367.87 K", "result": 372.6, "unit": "Pa"}, {"measurement": "vapor pressure p", "setting": "[1]; liquid phase, T = 369.87 K", "result": 415.4, "unit": "Pa"}, {"measurement": "vapor pressure p", "setting": "[1]; liquid phase, T = 371.82 K", "result": 456.8, "unit": "Pa"}, {"measurement": "vapor pressure p", "setting": "[1]; liquid phase, T = 373.82 K", "result": 506.8, "unit": "Pa"}, {"measurement": "vapor pressure p", "setting": "[1]; liquid phase, T = 375.77 K", "result": 559.6, "unit": "Pa"}, {"measurement": "vapor pressure p", "setting": "[1]; liquid phase, T = 377.79 K", "result": 620.3, "unit": "Pa"}, {"measurement": "vapor pressure p", "setting": "[1]; liquid phase, T = 379.71 K", "result": 682.3, "unit": "Pa"}, {"measurement": "vapor pressure p", "setting": "[1]; liquid phase, T = 381.71 K", "result": 755.4, "unit": "Pa"}, {"measurement": "vapor pressure p", "setting": "[1]; liquid phase, T = 383.62 K", "result": 827.1, "unit": "Pa"}, {"measurement": "vapor pressure p", "setting": "[1]; supercooled liquid, T = 334.28 K", "result": "48.38 ^d Pa"}, {"measurement": "vapor pressure p", "setting": "[1]; supercooled liquid, T = 335.87 K", "result": "53.45 ^d Pa"}, {"measurement": "vapor pressure p", "setting": "[1]; supercooled liquid, T = 338.22 K", "result": "62.48 ^d Pa"}, {"measurement": "vapor pressure p", "setting": "[1]; supercooled liquid, T = 340.16 K", "result": "71.24 ^d Pa"}, {"measurement": "vapor pressure p", "setting": "[1]; supercooled liquid, T = 342.24 K", "result": "81.73 ^d Pa"}, {"measurement": "pH of the saturated solution", "setting": "[2]", "result": 6.39}]}]}
